From patent US20120114588A1, “IBAT INHIBITORS FOR TREATMENT OF METABOLIC DISORDERS AND RELATED CONDITIONS” (ALBIREO AB, priority 2010, published 2012)
Values belong to the compound of their own block, whether it stands above or below them.

Columns and labels:
[1] = target: T1, Ileal Bile Acid Transporter Human (Homo sapiens, UniProt Q12908); test: ISBT Hu HEK Uptake SPA: Human HEK Glycocholic acid Uptake Radiometric SPA; type: cell-based; settings: human IBAT in HEK cells
T1 construct: expressed in transfected cells; host or cells: HEK
T1 sequence (Q12908 1-348): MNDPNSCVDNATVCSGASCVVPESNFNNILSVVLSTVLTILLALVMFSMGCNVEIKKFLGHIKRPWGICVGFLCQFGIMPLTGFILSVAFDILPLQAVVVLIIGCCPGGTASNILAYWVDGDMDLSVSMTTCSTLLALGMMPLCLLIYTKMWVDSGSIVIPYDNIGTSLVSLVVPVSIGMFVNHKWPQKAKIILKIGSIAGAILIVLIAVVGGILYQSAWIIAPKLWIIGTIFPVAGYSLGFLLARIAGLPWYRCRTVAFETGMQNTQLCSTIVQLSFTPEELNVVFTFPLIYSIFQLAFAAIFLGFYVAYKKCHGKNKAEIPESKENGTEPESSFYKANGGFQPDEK
Experimental: ISBT Hu HEK Uptake SPA 13203 IBAT HUM Ileal Bile Acid Transporter Human HEK Glycocholic acid Uptake Radiometric—SPA Inhibitor IC50 Mean IC50 (nM) was determined for the compounds of examples 1-14

[2] = Phase IIb placebo-controlled study in patients with Chronic Idiopathic Constipation: plasma glucose; type: in vivo, human (patients); settings: for Glucose concentration, Baseline, Mean ± SD: 10 mg group
Text: In a Phase Ilb, Double-blind, Randomised, Placebo-controlled, Multi-centre, Dose-finding,
Efficacy and Safety of a Range of Doses of the substance according to Example 14 in Patients with Chronic Idiopathic Constipation in addition also have glucose values above Upper limit of normal (ULN), treated for 56 days. The patient was a male or non-pregnant female 20 years of age and 80 years of age with body mass index (BMI) 18.5 but <35.
p-values were obtained from an analysis of covariance with treatment group, demographic group and treatment-by-demographic group as fixed factors and baseline value as a covariate in the model. No adjustment for multiple comparisons was made.

[3] = target: T2, Slc10a2 protein (Mus musculus, UniProt P70172); test: ob/ob mice gavaged with Slc10a2 inhibitor for 11 days: plasma, liver and distal ileum analyses; type: in vivo
T2 construct: from tissue; host or cells: living male ob/ob mice (Taconic), ileum in vivo
T2 sequence (P70172 1-348): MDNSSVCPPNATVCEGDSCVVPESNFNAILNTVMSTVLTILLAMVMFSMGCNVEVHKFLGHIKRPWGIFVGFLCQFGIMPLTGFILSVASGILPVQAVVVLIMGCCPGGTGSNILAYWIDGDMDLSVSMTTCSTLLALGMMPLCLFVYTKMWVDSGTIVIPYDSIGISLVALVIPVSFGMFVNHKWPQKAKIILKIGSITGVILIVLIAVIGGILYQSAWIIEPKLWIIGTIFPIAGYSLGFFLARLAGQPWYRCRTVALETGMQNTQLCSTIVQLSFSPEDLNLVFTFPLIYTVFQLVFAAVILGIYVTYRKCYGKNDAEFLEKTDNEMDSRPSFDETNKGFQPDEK
Text: A diet enriched in sucrose (D12329, Research Diets, NJ) together with drinking water supplemented with 10% fructose was used for the high carbohydrate experiment. Animals had free access to the diet for two weeks. Control animals received standard mouse chow and tap water. Male ob/ob animals were from Taconic, DK. Ob/ob animals were gavaged with a specific Slc10a2 inhibitor Example 14 or a control vehicle for 11 days. Animals had free access to food and water. All animal care and experiments were conducted in accordance with accepted standards of humane animal care and approved by the Ethics Committee of Goteborg University.
Blood was centrifuged, and plasma was analyzed for total cholesterol and TGs using the IL TestTM cholesterol 181618-10 and TG 181610-60 kits on the Monarch 2000 system (IL Scandinavia, Gothenburg, Sweden). Lipoprotein cholesterol profiles were obtained by separation of […] of plasma using a micro fast protein liquid chromatography (FPLC) system for the generation of lipoprotein profiles (15). Plasma insulin levels were analyzed using a rodent insulin RIA kit (Linco, St. Charles, Mich.). Total plasma glucose was analyzed using the IL Test (IL Scandinavia, Gothenburg, Sweden) on the Monark 2000 system. Blood glucose was determined using a Bayer Elite glucometer (Bayer diagnostics, Germany). Plasma free fatty acids were analyzed employing a commercial 3 NEFA kit (Wako Chemicals
Total RNA was extracted from frozen livers or distal ileum with TRIzol reagent (Invitrogen, Carlsbad, Calif.). The RNA was DNase-treated with RQ1 Dnase (Promega, Madison, Wis.). cDNA synthesis and quantitative real time PCR was performed employing HPRT as endogenous control (18). Primer and probe information are available upon request.
A ligand blot employing ^125I-labeled rabbit β-VLDL was used to detect LDL receptors in liver as described (19). Hepatic SR-BI was assayed by immunoblot using a rodent specific rabbit polyclonal antibody (Novus Biologicals Inc., Littleton, Colo.), as described (20). Cyp7a1 protein levels were assayed in liver microsomal protein samples by immunoblot using a rabbit polyclonal antibody directed against the C-terminus of the CYP7A1 (18). To detect SREBP1 protein, cytoplasmic and nuclear protein preparations from liver were performed using the NE—PER reagent (Pierce), including Complete protease inhibitor (Roche), 1 mM phenyl-methylsulfonyl fluoride, 0.5 mM leupeptin, 5 μg/ml Calpain inhibitor I (Biomol, Pa.), following the manufacturer's instructions. 50 μg and 25 μg of cytoplasmic and nuclear liver protein fractions, respectively, were electrophoresed on NuPage Bis-Tris gels (Invitrogen) and transferred to nitrocellulose membranes. Membranes were blocked in 5% skimmed milk powder and incubated with a mouse monoclonal antibody raised against the N′-terminus of SREBP1 (Labvision Corporation, Calif.) at 1.5 μg/mL in 5% skimmed milk powder for two hours at room temperature. An HRP conjugated goat anti-mouse F(ab)2 antibody (Pierce) was used for detection of specific signals together with Supersignal reagent (Pierce) and a Fuji BAS 1800 analyzer (Fuji Photo Film Co.). To analyze phosphorylated liver proteins by western blot, total liver protein homogenates were prepared from frozen tissue by homogenization using a polytron followed by sonication in a buffer containing 20 mM Tris-Hcl, pH 7,4, 1% Triton X-100, 10% Glycerol, 150 mM NaCl, 2 mM EDTA, 25 mM betaglycerophosphate, 20 mM sodium floride, 1 mM sodium orthovanadate, 2 mM sodium pyrophosphate, 1 mM benzamidine, 1 mM phenyl-methylsulfonyl fluoride, 0.5 mM leupeptin, Complete proteinase inhibitor (Roche), and then centrifuged at 14 000 rpm in a microcentrifuge, and the supernatant was recovered. 50 μg protein was loaded on NuPage Bis-Tris gels (Invitrogen) and transferred to nitrocellulose membranes. […]

[4] = western blot with phosphospecific antibodies

IC50 [1]: 0.2 nM
Structure (SMILES): CCCCC1(CCCC)CN(c2ccccc2)c2cc(SC)c(OCC(=O)N[C@@H](C(=O)N[C@@H](C)C(=O)O)c3ccccc3)cc2S(=O)(=O)N1 [Example 10, 1,1-Dioxo-3,3-dibutyl-5-phenyl-7-methylthio-8-(N-{(R)-α-[N-((S)-1-carboxyethyl)carbamoyl]benzyl}carbamoylmethoxy)-2,3,4,5-tetrahydro-1,2,5-benzothiadiazepine]

IC50 [1]: 0.35 nM
Structure (SMILES): CCCCC1(CCCC)CN(c2ccccc2)c2cc(SC)c(OCC(=O)N[C@@H](C(=O)N[C@@H](CSC)C(=O)O)c3ccccc3)cc2S(=O)(=O)N1 [Example 4, 1,1-Dioxo-3,3-dibutyl-5-phenyl-7-methylthio-8-(N-{(R)-α-[N-((R)-1-carboxy-2-methylthioethyl)carbamoyl]benzyl}carbamoylmethoxy)-2,3,4,5-tetrahydro-1,2,5-benzothiadiazepine]

IC50 [1]: 0.3 nM
Structure (SMILES): CCCCC1(CCCC)CN(c2ccccc2)c2cc(SC)c(OCC(=O)N[C@@H](C(=O)N[C@@H](C)C(=O)O)c3ccc(O)cc3)cc2S(=O)(=O)N1 [Example 12]

IC50 [1]: 0.39 nM
Structure (SMILES): CCCCC1(CCCC)CN(c2ccccc2)c2cc(SC)c(OCC(=O)N[C@@H](C(=O)N[C@@H](C)C(=O)O)c3ccccc3)cc2S(=O)(=O)C1 [Example 2, 1,1-Dioxo-3,3-dibutyl-5-phenyl-7-methylthio-8-(N-{(R)-α-[N′-((S)-1-carboxyethyl)carbamoyl]benzyl}carbamoylmethoxy)-2,3,4,5-tetrahydro-1,5-benzothiazepine]

IC50 [1]: 0.45 nM
Structure (SMILES): CCCCC1(CCCC)CN(c2ccccc2)c2cc(SC)c(OCC(=O)N[C@@H](C(=O)NCC(=O)O)c3ccccc3)cc2S(=O)(=O)N1 [Example 1, 1,1-Dioxo-3,3-dibutyl-5-phenyl-7-methylthio-8-(N-{(R)-α-[N-(carboxymethyl)carbamoyl]benzyl}carbamovlmethoxv)-2,3,4,5-tetrahvdro-1. 2. 5-benzothiadiazepine]

IC50 [1]: 0.11 nM
Structure (SMILES): CCCCC1(CCCC)CN(c2ccccc2)c2cc(SC)c(OCC(=O)N[C@@H](C(=O)N[C@H](C(=O)O)[C@@H](C)O)c3ccc(O)cc3)cc2S(=O)(=O)N1 [Example 8, 1,1-Dioxo-3,3-dibutyl-5-phenyl-7-methylthio-8-(N-{(R)-α-[N-((S)-1-carboxy-2-(R)-hydroxypropyl)carbamoyl]-4-hydroxybenzyl}carbamoylmethoxy)-2,3,4,5-tetrahydro-1,2,5-benzothiadiazepine]

IC50 [1]: 0.16 nM
Structure (SMILES): CCCCC1(CCCC)CN(c2ccccc2)c2cc(SC)c(OCC(=O)N[C@@H](C(=O)N[C@@H](CC)C(=O)O)c3ccc(O)cc3)cc2S(=O)(=O)N1 [Example 5, 1,1-Dioxo-3,3-dibutyl-5-phenyl-7-methylthio-8-(N-{(R)-α-[N-((S)-1-carboxypropyl)carbamoyl]-4-hydroxybenzyl}carbamoylmethoxy)-2,3,4,5-tetrahydro-1,2,5-benzothiadiazepine]

IC50 [1]: 1.2 nM | Total plasma TG levels reduced ([3]; 11 days treatment): 73% | Fasting levels of glucose reduced vs vehicle ([3]; 11 days treatment, blood glucose): 30% | Fasting insulin levels reduced ([3]; 11 days treatment, plasma): 50% | Total plasma cholesterol increased ([3]; 11 days treatment, tendency): 16% | FGF15 mRNA level ([3]; 11 days, distal ileum): significantly reduced | FXR gene expression ([3]; 11 days, distal ileum): unaltered | IBABP mRNA level ([3]; 11 days, distal ileum): significantly reduced | SHP mRNA level ([3]; 11 days, distal ileum): significantly reduced | Hepatic G6Pase expression ([3]; 11 days, liver): reduced | Hepatic GK mRNA level ([3]; 11 days, liver): increased | Hepatic LPK mRNA reduced ([3]; 11 days, liver): 30% | Hepatic PEPCK expression ([3]; 11 days, liver): reduced | Hepatic SREBP1c mRNA levels ([3]; 11 days, liver): markedly reduced | Hepatic cholesterol and TG content ([3]; 11 days, liver, vs control): no difference | Hepatic ACC mRNA level decreased ([3]; 11 days, liver, vs vehicle): 50% | Hepatic FAS mRNA level decreased ([3]; 11 days, liver, vs vehicle): 80% | Hepatic SCD1 mRNA level ([3]; 11 days, liver, vs vehicle): not significantly altered | Hepatic mRNA expression of FGF21 ([3]; 11 days, liver, vs vehicle): doubled | Hepatic mRNA level of CYP7A1 ([3]; 11 days, liver, vs vehicle): increased | Akt serine 473 phosphorylation in liver lysates [3, 4]: reduced | Mek1/2-Erk1/2 pathway activation in liver [3, 4]: reduced activation
Structure (SMILES): CCCCC1(CCCC)CN(c2ccccc2)c2cc(SC)c(OCC(=O)N[C@@H](C(=O)NCC(=O)O)c3ccccc3)cc2S(=O)(=O)C1 [Example 14, 1,1-Dioxo-3,3-dibutyl-5-phenyl-7-methylthio-8-(N-{ (R)-1′-phenyl-1′-[N′-(carboxymethyl)carbamoyl]methyl}carbamoylmethoxy)-2,3,4,5-tetrahydro-1,5-benzothiazepine]
Glucose concentration, Baseline, Mean ± SD ([2]; patients with glucose >ULN, n=4, before treatment): 129.8 ± 7.4 mg/dL | Glucose concentration, End of Treatment, Mean ± SD ([2]; patients with glucose >ULN, 10 mg, 56 days, n=4): 82 ± 10.23 mg/dL | Glucose concentration % change baseline to end of treatment ([2]; patients with glucose >ULN, 10 mg, 56 days, p 0.013 vs placebo): −36.9% | Reduction of glucose concentration, baseline vs end of treatment ([2]; patients with glucose higher than ULN, 10 mg, 56 days): 36% | Change of glucose concentration, baseline vs end of treatment ([2]; patients with glucose lower or equal to ULN): did not show any significant change | Glucose concentration, Baseline, Mean ± SD ([2]; patients with glucose ≦ULN, n=25, before treatment): 91.3 ± 7.52 mg/dL | Glucose concentration, End of Treatment, Mean ± SD ([2]; patients with glucose ≦ULN, 10 mg, 56 days, n=25): 90.6 ± 12.96 mg/dL | Glucose concentration % change baseline to end of treatment ([2]; patients with glucose ≦ULN, 10 mg, 56 days, p 0.653 vs placebo): −1%

IC50 [1]: 0.18 nM
Structure (SMILES): CCCCC1(CCCC)CN(c2ccccc2)c2cc(SC)c(OCC(=O)N[C@@H](C(=O)N[C@@H](CC)C(=O)O)c3ccccc3)cc2S(=O)(=O)N1 [Example 3, 1,1-Dioxo-3,3-dibutyl-5-phenyl-7-methylthio-8-(N-{(R)-α-[N-((S)-1-carboxypropyl)carbamoyl]benzyl}carbamoylmethoxy)-2,3,4,5-tetrahydro-1,2,5-benzothiadiazepine]

IC50 [1]: 0.36 nM
Structure (SMILES): CCCCC1(CCCC)CN(c2ccccc2)c2cc(SC)c(OCC(=O)N[C@@H](C(=O)N[C@H](C(=O)O)C(C)C)c3ccccc3)cc2S(=O)(=O)N1 [Example 7, 1,1-Dioxo-3,3-dibutyl-5-phenyl-7-methylthio-8-(N-{(R)-α-[N-((S)-1-carboxy-2-methylpropyl)carbamoyl]benzyl}carbamoylmethoxy)-2,3,4,5-tetrahydro-1,2,5-benzothiadiazepine]
